# Test results: patent publication US20200078395A1, “AVERTING COMPLICATIONS OF PUMP INHIBITOR THERAPY BY EFFERVESCENT CALCIUM MAGNESIUM CITRATE” (THE BOARD OF REGENTS OF THE UNIVERSITY OF TEXAS SYSTEM, priority 2018, published 2020)
# Legend:
# [1] = Serum magnesium in CKD Stage 3 and Stage 5D after EffCaMgCit or calcium acetate; format: in vivo, human
# [2] = Multi-dosing crossover trial on esomeprazole: post-load serum calcium; format: in vivo, human; conditions: for number of subjects with hypocalcemia or marginal hypocalcemia (serum calcium <9 mg/dL): of 22 subjects; for subjects with low or marginally low serum calcium (<9 mg/dL): baseline 18%
# Description: (§1) The inventors conducted a multi-dosing trial, in which the effect of EffCaMgCit was compared with placebo in a crossover trial in 22 healthy subjects taking PPI at twice the usual dose (esomeprazole 40 mg/day) for 28 days, representing the recommended treatment format for erosive esophagitis-gastritis. During the EffCaMgCit phase, subjects took EffCaMgCit containing 19 meq calcium and 10 meq magnesium twice per day for 28 days. During the Placebo Phase, the subjects took placebo for 28 days. During both phases, the subjects took esomeprazole 40 mg per day. Blood samples were obtained 4 hours after EffCaMgCit dose (in multi-dosing trials with esomeprazole), rather than in the fasting state. Tamsen: no study with PPI in CKD. Peak absorption of calcium and magnesium occurs 2-4 hours after oral load. Thus, pharmacokinetic and pharmacodynamic effects of EffCaMgCit can best be captured in post-load samples.
# A venous blood sample was obtained at 4 hours after the morning dose of EffCaMgCit or placebo, for the analysis of Ca, PTH, CTX and Mg after 2 weeks and 4 weeks of treatment. […] In the Placebo group (while on esomeprazole), a low or marginally low serum calcium (<9 mg/dL) was encountered in 23% of subjects at 2 weeks and in 18% of subjects at 4 weeks. […] Thus, not only did EffCaMgCit raise serum calcium, but it also corrected low or marginally low serum calcium. At two weeks of placebo (esomeprazole alone), a higher percentage of subjects had low or marginally low serum calcium than at baseline before esomeprazole (23% vs. 18%). Thus, a low or marginally low serum calcium developed during two weeks of esomeprazole therapy in an additional patient. This subject had normal serum calcium on EffCaMgCit (plus esomeprazole). FIGS. 1 and 2.
# serum PTH = experiment: Multi-dosing crossover trial on esomeprazole: post-load serum PTH; format: in vivo, human; conditions: of 22 subjects, baseline 8
# Description: as §1
# (§2) A venous blood sample was obtained at 4 hours after the morning dose of EffCaMgCit or placebo, for the analysis of Ca, PTH, CTX and Mg after 2 weeks and 4 weeks of treatment. […] In the Placebo group (while on esomeprazole), a low or marginally low serum calcium (<9 mg/dL) was encountered in 23% of subjects at 2 weeks and in 18% of subjects at 4 weeks. […] Thus, not only did EffCaMgCit raise serum calcium, but it also corrected low or marginally low serum calcium. […]
# serum CTX = experiment: Multi-dosing crossover trial on esomeprazole: post-load serum CTX (bone resorption marker); format: in vivo, human; set-up: dose or concentration left out as unconfirmed; conditions: of 22 subjects
# Description: as §1, §2
# [3] = Multi-dosing crossover trial on esomeprazole: post-load serum magnesium; format: in vivo, human; conditions: for number of subjects with hypomagnesemia or marginal hypomagnesemia (<2 mg/dL): of 22 subjects, baseline 2; for subjects with hypomagnesemia or marginal hypomagnesemia (<2 mg/dL): baseline 9%
# Description: as §1
# Serum magnesium was determined at 2 weeks and 4 weeks at 4 hours after the morning dose. […] At baseline (before starting esomeprazole), 9% of subjects had hypomagnesemia or marginal hypomagnesemia (<2 mg/dL). During treatment with placebo with esomeprazole, hypomagnesemia or marginal hypomagnesemia was found in a higher percentage of subjects (14% at 2 weeks, and 23% at 4 weeks). During treatment with EffCaMgCit with esomeprazole, no subjects had hypomagnesemia or marginal hypomagnesemia. FIGS. 7 and 8.
# [4] = Multi-dosing crossover trial on esomeprazole: fractional excretion of magnesium (FEMg); format: in vivo, human; conditions: from baseline over 2-4 weeks
# Description: as §1
# [5] = Multi-dosing crossover trial on esomeprazole: 24-h urinary citrate and ammonium (acid load); format: in vivo, human; conditions: after 2-4 weeks of treatment
# Description: as §1
# 24-h urinary citrate and ammonium, urinary markers of acid-base balance, were determined at baseline and after 2-4 weeks of treatment with esomeprazole (plus placebo) and after treatment with esomeprazole (plus EffCaMgCit). […] FIGS. 10 and 11.
# serum FGF23 = experiment: Multi-dosing crossover trial on esomeprazole: post-load serum FGF23; format: in vivo, human; conditions: 4 hours after morning dose, baseline to 4 weeks
# Description: as §1
# [6] = omeprazole use versus non-omeprazole use, FDA Adverse Event Reporting System 2012 (Tamura, 2012); cited from earlier work
smiles,measurement,setting,value
CC(=O)[O-].CC(=O)[O-].[Ca+2] [calcium acetate],serum magnesium after treatment,"[1]; CKD Stage 3, data not shown",did not change
same,serum Mg after treatment,[1]; CKD Stage 5D without residual renal function,did not
COc1ccc2nc([S@@+]([O-])Cc3ncc(C)c(OC)c3C)[nH]c2c1 [esomeprazole],number of subjects with hypocalcemia or marginal hypocalcemia (serum calcium <9 mg/dL),[2]; after 4 weeks,4 subjects
same,number of subjects with hypocalcemia or marginal hypocalcemia (serum calcium <9 mg/dL),[2]; at 2 weeks,5 subjects
same,subjects with low or marginally low serum calcium (<9 mg/dL),[2]; at 2 weeks,23%
same,subjects with low or marginally low serum calcium (<9 mg/dL),[2]; at 4 weeks,18%
same,number of subjects with high serum PTH (>65 pg/ml),serum PTH; at 2 weeks,15 subjects
same,number of subjects with high serum PTH (>65 pg/ml),serum PTH; at 4 weeks,10 subjects
same,number of subjects with high serum CTX (upper normal limit),serum CTX; at 2 weeks,Six
same,number of subjects with high serum CTX (upper normal limit),serum CTX; at 4 weeks,Six
same,number of subjects with hypomagnesemia or marginal hypomagnesemia (<2 mg/dL),[3]; at 2 weeks,3 subjects
same,subjects with hypomagnesemia or marginal hypomagnesemia (<2 mg/dL),[3]; at 2 weeks,14%
same,number of subjects with hypomagnesemia or marginal hypomagnesemia (<2 mg/dL),[3]; at 4 weeks,5 subjects
same,subjects with hypomagnesemia or marginal hypomagnesemia (<2 mg/dL),[3]; at 4 weeks,23%
same,"FEMg, change during treatment",[4],trended downward
same,24-h urinary ammonium compared with baseline,[5],marginally higher
same,24-h urinary citrate compared with baseline,[5],significantly lower
same,"serum FGF23, change from Baseline",serum FGF23,trend toward a decline
same,"serum FGF23, change from Baseline",serum FGF23; listed as PPI,tended to rise
COc1ccc2[nH]c([S+]([O-])Cc3ncc(C)c(OC)c3C)nc2c1 (centres unmarked) [omeprazole],odds ratio of hypomagnesemia,[6],2.76
